Reference: ChEMBL document CHEMBL3243921, “2-Pyrrolidinylideneureas, a new class of central nervous system agents” (J Med Chem, 1978)
The source made the active and inactive calls.

Legend:
[1] = system: Rattus norvegicus; assay: Antianxiety activity in ip dosed rat assessed as effect on increase in punished responses administered qd for 5 days measured every day for 5 days; type: functional; settings: 120 h, read-out: MED
[2] = system: Mus musculus; assay: Muscle relaxant activity in po dosed mouse assessed as blockade of pentylenetetrazol-induced tonic extensor seizure; type: functional
[3] = system: Mus musculus; assay: Sedative activity in mouse assessed as increase in pentylenetetrazol-induced pseudo-convulsive threshold at 25 to 200 mg/kg, po; type: functional, organism-based
[4] = system: Mus musculus; assay: Muscle relaxant activity in po dosed mouse assessed as increase in strychnine-induced persistant convulsive threshold; type: functional
[5] = system: Mus musculus; assay: Anticonvulsant activity in po dosed mouse assessed as blockade of supramaximal electroshock-induced […] seizure; type: functional
[6] = system: Mus musculus; assay: Acute toxicity in po dosed mouse assessed as concentration required to produce 50% loss of righting reflex administered as qd for 4 days measured for 1 min post last dose; type: organism-based; settings: in vivo
[7] = Acute toxicity in po dosed mouse assessed as mortality administered as qd for 6 days measured on day 7 post last dose; type: organism-based; settings: in vivo
[8] = Ratio of LD50 for po dosed mouse to PD50 for acute toxicity in po dosed mouse assessed as concentration required to produce 50% loss of righting reflex; type: organism-based; settings: in vivo
[9] = Therapeutic index, ratio of PD50 for acute toxicity in po dosed mouse assessed as concentration required to produce 50% loss of righting reflex to MED causing antianxiety activity in ip dosed rat assessed as effect on increase in punished responses; type: organism-based; settings: in vivo, other: oral (PD50, mouse) and intraperitoneal (MED, rat), read-out: TI
[10] = system: Mus musculus; assay: Sedative-hypnotic activity in mouse assessed as increase in pentylenetetrazol-induced pseudo/persistent-convulsive threshold at 50 to 200 mg/kg, po; type: functional, organism-based
[11] = system: Mus musculus; assay: Sedative-hypnotic activity in po dosed mouse assessed as increase in pentylenetetrazol-induced persistent-convulsive threshold; type: functional, organism-based
[12] = system: Mus musculus; assay: Sedative-hypnotic activity in mouse assessed as increase in pentylenetetrazol-induced pseudo/persistent-convulsive threshold at 1 to 5 mg/kg, po; type: functional, organism-based
[13] = system: Mus musculus; assay: Blockade of pentylenetetrazol-induced lethality in mouse assessed as delay in occurrence of death time up to 200 mg/kg, po; type: functional
[14] = system: Mus musculus; assay: Sedative activity in mouse assessed as increase in pentylenetetrazol-induced pseudo-convulsive threshold up to 200 mg/kg, po; type: functional, organism-based; set-up: dose 200 mg/kg
[15] = system: Mus musculus; assay: Hypnotic activity in mouse assessed as increase in pentylenetetrazol-induced persistent-convulsive threshold up to 200 mg/kg, po; type: functional, organism-based; set-up: dose 200 mg/kg
[16] = system: Mus musculus; assay: Potency index, ratio of chlorzoxazone MED20 to compound MED20 for muscle relaxant activity in po dosed mouse assessed as blockade of pentylenetetrazol-induced tonic extensor seizure; type: functional
[17] = system: Mus musculus; assay: Potency index, ratio of methocarbamol MED20 to compound MED20 for muscle relaxant activity in po dosed mouse assessed as blockade of pentylenetetrazol-induced tonic extensor seizure; type: functional
[18] = system: Mus musculus; assay: Potency index, ratio of chlorzoxazone MED20 to compound MED20 for anticonvulsant activity in po dosed mouse assessed as blockade of supramaximal electroshock-induced […] seizure; type: functional
[19] = system: Mus musculus; assay: Potency index, ratio of methocarbamol MED20 to compound MED20 for anticonvulsant activity in po dosed mouse assessed as blockade of supramaximal electroshock-induced […] seizure; type: functional
[20] = Therapeutic index, ratio of PD50 for acute toxicity in po dosed mouse assessed as concentration required to produce 50% loss of righting reflex to MED25 for muscle relaxant activity in po dosed mouse assessed as increase in strychnine-induced persistant convulsive threshold; type: organism-based; settings: in vivo, read-out: TI
[21] = system: Mus musculus; assay: Blockade of pentylenetetrazol-induced lethality in mouse at 40 mg/kg, po; type: functional, organism-based; set-up: dose 40 mg/kg
[22] = system: Mus musculus; assay: Muscle relaxant activity in mouse assessed as blockade of pentylenetetrazol-induced tonic extensor seizure at 40 mg/kg, po; type: functional, organism-based; set-up: dose 40 mg/kg

Row | SMILES | minimal effective dose [1] | MED20 [2] | MED25 [4] | MED20 [5] | PD50 [6] | LD50 at 144 h [7] | selectivity ratio [8] | selectivity ratio [9] | Time [13] | Activity [14] | Activity [15] | also measured
1 | Cc1cccc(NC(=O)/N=C2\CCCN2C)c1 | 25 mg/kg | 25 mg/kg | >200 mg/kg | 76 mg/kg | 825 mg/kg | 850 mg/kg | 1 | 33 |  |  |  | Activity [3]: Active
2 | CCN1CCC/C1=N\C(=O)Nc1cccc(Cl)c1 | 15 mg/kg | 60 mg/kg | 137 mg/kg | 200 mg/kg | 1307 mg/kg | 1700 mg/kg | 1.2 | 58 |  |  |  | Activity [10]: Active; Activity [11]: Active
3 | CN1C(=O)CN=C(c2ccccc2)c2cc(Cl)ccc21 [DIAZEPAM] | 0.5 mg/kg | 0.1 mg/kg | 0.17 mg/kg | 15 mg/kg |  |  |  |  |  |  |  | Activity [12]: Active
4 | COc1cccc(NC(=O)/N=C2\CCCN2C)c1 | > 25 mg/kg | 68 mg/kg | 135 mg/kg | 135 mg/kg | 1390 mg/kg | 1200 mg/kg | 1.5 |  |  |  |  | Activity [3]: Active
5 | CCc1cccc(C)c1NC(=O)/N=C1\CCCN1C |  | 20 mg/kg | 96 mg/kg | 36 mg/kg |  | 650 mg/kg |  |  | 1 min | inactive | inactive | Ratio [16]: 4; Ratio [17]: 4; Ratio [18]: 3; Ratio [19]: 3
6 | CC(C)c1cccc(C(C)C)c1NC(=O)/N=C1\CCCN1C |  | 180 mg/kg | >200 mg/kg | 165 mg/kg |  | 260 mg/kg |  |  | 1 min | inactive | inactive | 
7 | Cc1cccc(C)c1NC(=O)/N=C1\CCCN1C [XILOBAM] | > 25 mg/kg | 22 mg/kg | 26 mg/kg | 27 mg/kg | 230 mg/kg |  |  |  |  | inactive | inactive | 
8 | CCc1cccc(CC)c1NC(=O)/N=C1\CCCN1C | > 25 mg/kg | 16 mg/kg | 120 mg/kg | 64 mg/kg | 161 mg/kg | 370 mg/kg | 2.3 |  | 1 min | inactive | inactive | Ratio [16]: 4; Ratio [17]: 4; selectivity ratio [20]: 1.3
9 | CN1CCC/C1=N\C(=O)Nc1c(Cl)cccc1Cl | > 25 mg/kg | 25 mg/kg | 64 mg/kg | 58 mg/kg | 320 mg/kg | 565 mg/kg | 1.8 |  | 1 min | inactive | inactive | Ratio [16]: 4; Ratio [17]: 4; selectivity ratio [20]: 5
10 | CN1CCC/C1=N\C(=O)Nc1cccc(F)c1 | 25 mg/kg | 38 mg/kg | 210 mg/kg | 200 mg/kg | 500 mg/kg | 525 mg/kg | 1 | 20 |  |  |  | 
11 | CN1CCC/C1=N\C(=O)Nc1c(Br)cccc1Br | > 25 mg/kg | 25 mg/kg | 50 mg/kg | 74 mg/kg | 350 mg/kg | 560 mg/kg | 1.6 |  | 1 min | inactive | inactive | Ratio [16]: 4; Ratio [17]: 4; selectivity ratio [20]: 7
12 | CN1CCC/C1=N\C(=O)Nc1cccc(Br)c1 | 25 mg/kg | 52 mg/kg | 58 mg/kg | 180 mg/kg | 1430 mg/kg | 1580 mg/kg | 1.1 | 57 |  |  |  | Activity [3]: Active
13 | COc1cccc(OC)c1NC(=O)/N=C1\CCCN1C | > 25 mg/kg | 62 mg/kg | >200 mg/kg | 80 mg/kg | 460 mg/kg | 650 mg/kg | 1.4 |  | 1 min | inactive | inactive | 
14 | CN1CCC/C1=N\C(=O)Nc1cccc(C(F)(F)F)c1 | > 25 mg/kg | 47 mg/kg | 58 mg/kg | 76 mg/kg | 1000 mg/kg | > 1000 mg/kg |  |  |  |  |  | Activity [3]: Active
15 | CN1CCC/C1=N\C(=O)Nc1ccccc1 | 15 mg/kg | 40 mg/kg | 35 mg/kg | >100 mg/kg | 220 mg/kg | 215 mg/kg | 1 | 15 |  |  |  | Activity [3]: Active
16 | Cc1cccc(Cl)c1NC(=O)/N=C1\CCCN1C | > 25 mg/kg | 28 mg/kg | 52 mg/kg | 43 mg/kg | 232 mg/kg | 449 mg/kg | 1.9 |  | 1 min | inactive | inactive | Ratio [16]: 4; Ratio [17]: 4; Ratio [18]: 3; Ratio [19]: 3; selectivity ratio [20]: 4.5
17 | CNC1=Nc2ccc(Cl)cc2C(c2ccccc2)=[N+]([O-])C1 [CHLORDIAZEPOXIDE] | 2.5 mg/kg | 1.5 mg/kg | 10 mg/kg | 71 mg/kg | 680 mg/kg | 990 mg/kg | 1.5 | 260 |  |  |  | Activity [21]: Active; Activity [22]: Active
